Assay results as given in article PMC12388506, “Preclinical Evaluation of 2-Aminobenzothiazole Derivatives: In Silico, In Vitro, and Preliminary In Vivo Studies as Diabetic Treatments and Their Complications” (Molecules, 2025).
“Also recorded” adds a separate entry of the source. Each block holds one compound with its values, some of them ahead of it.

Tests used:
[1] = Observed chemical stability of the isolated compound; format: physicochemical; conditions: neutral (acid) form
Method: Compound 5d was obtained according to the general procedure described. It consists of reacting one molar equivalent of compound 2 with the corresponding carboxylate (L-phenylalanine sodium salt) under refluxing ethanol for 24 h. Under these conditions, the reaction proceeds by nucleophilic attack of the amino group on the carbonimidothioate group of compound 2, with the elimination of gaseous thiomethanol to obtain the sodium salt of SMe-isothiourea 5d, with a yield of 40%. […] Therefore, it was used only as an intermediate for the synthesis of its corresponding methyl ester (8d). The corresponding SMe-isothiureacarbozxylate methyl ester 8d was obtained in 56% yield using one molar equivalent of the SMe-isothiurea sodium salt, with 1.2 equivalents of iodomethane in DMF at room temperature for 24 h, following the general procedure described in the literature. […]
In a flask, L-phenylalanine (202 mg, 1.23 mmol) and NaOH (48.8 mg, 1.2 mmol) were placed in 10 mL of EtOH. […] It was kept at the same temperature for 24 h, and the reaction was monitored with TLC (Hex-AcOEt 7:3). […] Compound 5d was obtained as an acid in the form of a pale white crystal with a yield of 40.0% (182.5 mg, 0.5 mmol) and an mp = 92−94 °C; TLC Rf = 0.44 (Hex-AcOEt 7:3); HPLC tr = 10.7 min; ATR-FTIR νmax (cm^−1): 3155.8, 3067.3, 2925, 2855.6; HRMS (ESI+) 372.0840 m/z calculated for C18H18N3O2S2; found 372.0928 [M + H]^+.

[2] = system: TNF-α; assay: Ex vivo serum TNF-α quantification; format: in vivo, rat
Method: (§1) At the end of the study, animals fasted for 12 h and were taken to a humane endpoint, where blood samples were obtained. These were kept at room temperature for 30 min and then centrifuged at 4000 RPM for 15 min at 4 °C. Finally, the serum was used to perform 24-element blood chemistry and quantify Trolox-equivalent TAC [86], TNF-α [87], and IL-6 levels using commercial kits from Merck (Darmstadt, Germany), Sigma-Aldrich (St. Louis, MO, USA), Cat. No. MAK334-1KT, RAB0479-1KT, and RAB0311-1KT, respectively. In addition, insulin was quantified using the Rat Ins1/Insulin ELISA Kit, from Sigma-Aldrich, No. Cat. RAB0904-1KT [89] to determine the HOMA-IR index. All kits were performed according to the manufacturer’s instructions without modifications.

[3] = system: STZ-HFD-induced T2D Wistar rats; assay: Subchronic evaluation in STZ-HFD-induced T2D model; format: in vivo, rat; parameters: HbA1c: unit not given here
Method: In vivo experiments were conducted in an acute and a subchronic model, where Wistar rats (180–220 g) were used. The study covered a total period of 10 weeks and was carried out under the Mexican Standard, and the “Guide for the Care and Use of Laboratory Animals” of the National Research Council and Health Institutes was followed.
At first, animals were housed in polypropylene cages under conditions of controlled temperature (20–25 °C), relative humidity (36–60%), and light/dark cycles, with water ad libitum. Before starting the experiment, they were given a one-week acclimatization period to adapt to their new habitat. Once finalized, animals were fed an HFD for 3 weeks to generate insulin resistance.
After this period, the animals fasted for 12 h and then were administered intraperitoneally with a single dose of 35 mg/Kg of STZ dissolved in a buffer of 0.1 M citrate, pH 4.5 (prepared on the same day of administration). Once administered, the hypercaloric diet was maintained, and 10% sucrose solution was placed on demand for 2 days.
One week after administration, postprandial blood glucose levels were measured by venipuncture using a glucometer. Those animals that maintained a glucose level between 200 and 400 mg/dL were included in the study.
(§2) Treatments were administered daily as described above, adjusting the dose according to the weight of the individuals. Fasting glucose levels (6 h fast) were monitored every 7 days until the end of treatments at week 10 (Figure 14). Halfway through the last week of treatment, the OGTT was performed, administering a dose of 1.5 g/Kg of glucose orally and subsequently monitoring capillary blood glucose at 0, 15, 30, 60, 90, and 120 min [62]. In addition, a 24-element blood chemistry was measured in a Celercare V automated dry chemistry analyzer (Tianjin MNCHIP Technologies Co., Ltd., Tianjin, China) at the beginning and end of the model. For this purpose, the blood samples were obtained from the tail of the rat.
as §1

[4] = system: IL-6; assay: Ex vivo serum IL-6 quantification; format: in vivo, rat
Method: as §1

[5] = system: STZ-HFD-induced T2D Wistar rats; assay: Ex vivo serum total antioxidant capacity (Trolox equivalent); format: in vivo, rat
Method: as §1

[6] = system: STZ-HFD-induced T2D Wistar rats; assay: 24-element blood chemistry in STZ-HFD-induced T2D model; format: in vivo, rat; parameters: GGT / TBA / AMY / TG / T-CHOL / GLU: unit not given here; conditions: for ALP / ALT / AST / CK: in U/L (unit assumed); for ALB / GLO / TP: in g/dL (unit assumed); for BUN / CRE / Ca / Mg / P / TBIL / UREA: in mg/dL (unit assumed); for tCO2: in mmol/L (unit assumed); for TP: mean ± SEM, n = 4
Method: as §2, §1

[7] = Table S11, After 5 weeks of treatment
[8] = serum, end of treatment, mean ± SEM, n = 4
[9] = after the induction of T2D, before treatment

SMILES: CS/C(=N/c1nc2ccccc2s1)N[C@@H](Cc1ccccc1)C(=O)O [5d, (E)-((benzo[d]thiazol-2-ylimino)(methylthio)methyl)-L-phenylalanine]
chemical stability [1]: decomposes easily under ambient conditions; also recorded: decomposes, even at low temperatures

A/G ([6]; Final): 1.43 ± 0.05 | AMY ([6]; Final): 405.75 ± 25.93 | BUN/CRE ([6]; Final): 28.00 ± 3.24 | GGT ([6]; Final): 1.25 ± 0.19 | TBA ([6]; Final): 72.60 ± 16.24 | ALP ([6]; Final): 274.00 ± 58.19 | CK ([6]; Final): > 3000 | ALB ([6]; Final): 3.78 ± 0.12 | GLO ([6]; Final): 2.65 ± 0.12 | BUN ([6]; Final): 14.81 ± 1.23 | CRE ([6]; Final): 0.54 ± 0.04 | Ca ([6]; Final): 9.18 ± 0.08 | Mg ([6]; Final): 2.40 ± 0.05 | P ([6]; Final): 8.30 ± 0.47 | TBIL ([6]; Final): 0.16 ± 0.02 | UREA ([6]; Final): 31.58 ± 2.78 | tCO2 ([6]; Final): 18.00 ± 0.41 | TP ([6]; Final): 6.43 ± 0.22 | A/G ([6]; Initial): 1.45 ± 0.03 | AMY ([6]; Initial): 369.75 ± 26.22 | BUN/CRE ([6]; Initial): 25.75 ± 2.59 | GGT ([6]; Initial): 0.80 ± 0.25 | TBA ([6]; Initial): 76.43 ± 13.25 | ALP ([6]; Initial): 271.25 ± 44.69 | CK ([6]; Initial): 509 ± 118.04 | ALB ([6]; Initial): 3.85 ± 0.06 | GLO ([6]; Initial): 2.65 ± 0.10 | BUN ([6]; Initial): 14.22 ± 1.51 | CRE ([6]; Initial): 0.56 ± 0.03 | Ca ([6]; Initial): 9.30 ± 0.20 | Mg ([6]; Initial): 2.09 ± 0.03 | P ([6]; Initial): 7.55 ± 0.87 | TBIL ([6]; Initial): 0.2 ± 0.02 | UREA ([6]; Initial): 30.40 ± 3.28 | tCO2 ([6]; Initial): 13.75 ± 0.85 | TP ([6]; Initial): 6.5 ± 0.15
SMILES: CCc1ccc(CCOc2ccc(CC3SC(=O)NC3=O)cc2)nc1 (centres unmarked) [PGZ, pioglitazone, reference compound]
TNF-α [2, 7]: 3000.53 ± 519.24 pg/mL | TNF-α [2, 8]: 3000.53 ± 519.24 pg/mL | HOMA-IR ([3]; After 5 weeks of treatment): 2.32 ± 0.407 | R-QUICKI ([3]; After 5 weeks of treatment): 0.339 ± 0.008 | HbA1c ([3]; After 5 weeks of treatment, mean ± SEM, n = 4): 9.633 ± 1.601 | HOMA-IR ([3]; Final (end of 5 weeks treatment), PGZ 30 mg/Kg, 8d 32 mg/Kg, mean ± SEM, n = 4): 2.32 ± 0.41 | HOMA-IR ([3]; Initial (beginning of treatment), PGZ 30 mg/Kg, 8d 32 mg/Kg, mean ± SEM, n = 4): 2.59 ± 0.34 | HOMA-IR [3, 9]: 2.59 ± 0.337 | R-QUICKI [3, 9]: 0.333 ± 0.007 | HbA1c ([3]; after the induction of T2D, before treatment, mean ± SEM, n = 4): 8.433 ± 0.088 | adipogenic effect at necropsy ([3]; after treatment): clear adipogenic effect | polydipsia (water consumption) ([3]; daily oral treatment): decreasing the polydipsia after the first week of treatment | redistribution of adipose tissue from visceral to subcutaneous fat ([3]; necropsy): marked | effect on IL-6 and TNF-α levels ([4]; IL-6 and TNF-α together): significantly reduced IL-6 and TNF-α levels | IL-6 [4, 7]: 234.25 ± 52.05 pg/mL | IL-6 [4, 8]: 234.25 ± 52.05 pg/mL | effect on total antioxidant capacity (TAC) [5]: partial recovery of TAC | TAC Equivalent to Trolox [5, 7]: 97.75 ± 1.29 µM | TAC Equivalent to Trolox [5, 8]: 97.75 ± 1.29 µM | AST/ALT ([6]; Final): 4.61 ± 0.51 | GLU ([6]; Final): 275.25 ± 84.75 | T-CHOL ([6]; Final): 98.00 ± 5.57 | TG ([6]; Final): 151.00 ± 10.42 | ALT ([6]; Final): 75.75 ± 6.73 | AST ([6]; Final): 343.50 ± 39.59 | AST/ALT ([6]; Initial): 1.99 ± 0.38 | GLU ([6]; Initial): 203.25 ± 19.84 | T-CHOL ([6]; Initial): 81.00 ± 1.96 | TG ([6]; Initial): 108.13 ± 6.46 | ALT ([6]; Initial): 63.5 ± 6.5 | AST ([6]; Initial): 119.25 ± 7.96
